According to publication PMC4663518, “Cytotoxic Indole Alkaloids against Human Leukemia Cell Lines from the Toxic Plant Peganum harmala” (Toxins, 2015):

How the values were obtained:
HEL cells = test: MTT cytotoxicity assay, HEL; format: cell-based, human; conditions: 48 h, Mean ± SD
Protocol: (§1) Cytotoxicity was measured by the MTT assay.

HL-60 cells = test: MTT cytotoxicity assay, HL-60; format: cell-based, human; conditions: Mean ± SD
Protocol: as §1

U-937 cells [1] = test: MTT cytotoxicity assay, U-937; format: cell-based, human; conditions: Mean ± SD
Protocol: as §1

KG1 cells = test: MTT cytotoxicity assay, KG1; format: cell-based, human; conditions: Mean ± SD
Protocol: as §1

in vitro = conditions: human
Protocol: (§10) Meanwhile, the cytotoxicity against human embryonic kidney cells (HEK-293) was evaluated for their toxic selectivity.
(§11) Human leukemia cell lines (U-937, HL-60, KG1 and HEL) and human embryonic kidney cells (HEK-293) were purchased from American Type Culture Collection (ATCC) (Manassas, VA, USA). Cells were cultured in RPMI 1640 supplemented with 10% fetal bovine serum (Gibco Life Technologies, Grand Island, NY, USA), 50 U/mL penicillin and 100 μg/mL streptomycin and maintained in a humidified atmosphere containing 5% CO2 at 37 °C. Penicillin and streptomycin were purchased from Hyclone (Logan, UT, USA).
(§12) Cytotoxicity was measured by the MTT assay. Briefly, cells were cultured in RPMI 1640 supplemented with 10% fetal bovine serum, 10 mmol/L Hepes, 50 units/mL penicillin, 50 μg/mL streptomycin, and 100 μg /mL gentamicin and were maintained at 37 °C in 5% CO2. A total of 2.5 × 10^4 cells in growth media were placed in each well of a 96-well flat-bottom plate. After 12 h of incubation, the growth medium was replaced by media containing different concentrations of the test samples. Cytotoxicity was determined at 48 h from the MTT absorbance (490 nm) reading for each concentration compared to the control. At least three replications for each sample were used to determine the cytotoxicity.

[2] = MTT cytotoxicity assay, HEK-293 (toxic selectivity); conditions: human, HEK-293 cells, IC50 HEK-293, MTT, Mean ± SD
Protocol: as §10, §11, §12

p-ERK1/2 = test: Western blot p-ERK1/2 in U-937 cells; format: cell-based, human; conditions: 2.0 µmol/L, 0, 24 and 48 h
From the text: (§2) Unusual activation of Ras/Raf/MAPK signaling pathway is one of main characteristic of human cancer. In this study, the Ras/Raf/MAPK pathway was investigated in HMC-induced U-937 cell apoptosis. Genistein, a broad-spectrum inhibitor of protein tyrosine kinases (PTKs), was used to detect the cell viability after HMC treatment. […] Moreover, the expressions of Ras/Raf/ERK in U-937 cells were detected after HMC treatment in different time courses.
(§3) Figure 3 Apoptosis via Ras/Raf/ERK signaling pathway in U-937 cells after HMC treatment. (A) Cell viability was assessed using MTT method in U-937 cells after pretreated by 10 µmol/L Genistein for 1 h, and then the cells were incubated without or with 2.0 µmol/L HMC for 48 h. […] Data are presented as means ± SEM of three independent tests. * p < 0.05 versus control, ** p < 0.01 versus control.
(§4) U-937 cells were treated with 2.0 µmol/L HMC for 0, 24 and 48 h, respectively. […] After 14,000× g centrifugation for 15 min, the protein content of supernatant was determined by the Bio-Rad DC protein assay (Bio-Rad Laboratories, Hercules, CA, USA). […] Proteins were detected using primary antibodies, followed by HRP-conjugated secondary antibody. Labeling was detected using the ECL system (Amersham Biosciences Corp., Piscataway, NJ, USA).

Bcl-2 = test: Western blot Bcl-2 in U-937 cells; format: cell-based, human; conditions: 2.0 µmol/L, 24 h
Protocol: (§5) Since Bcl-2 family members were critical regulators of the mitochondrial pathway that induced intrinsic caspase activation, RT-PCR was applied to detect the mRNA level of Bax and Bcl-2 in HMC-treated U-937 cells. […] Meanwhile, Western blot analyses were carried out to observe the expressions of Bcl-2 and Bax.
(§6) U-937 cells were treated with 2.0 µmol/L HMC for 0, 24 and 48 h, respectively. The whole cells were collected, and then the cell pellets were resuspended with RIPA buffer that contained a mixture of protease inhibitors at 4 °C for 30 min. After 14,000× g centrifugation for 15 min, the protein content of supernatant was determined by the Bio-Rad DC protein assay (Bio-Rad Laboratories, Hercules, CA, USA). […] Proteins were detected using primary antibodies, followed by HRP-conjugated secondary antibody. Labeling was detected using the ECL system (Amersham Biosciences Corp., Piscataway, NJ, USA).

U-937 cells [3] = test: ATP luminescence level; format: cell-based, human; conditions: 2.0 μmol/L, 24 h
Protocol: (§7) To make it clear whether HMC-induce apoptosis was related to mitochondrial function, mitochondrial transmembrane potential was assessed using Rhodamine 123. […] Meanwhile, the ATP level of mitochondria was measured in U-937 cells treated by HMC.
ATP luminescence was detected according to the manufactured information to evaluate the mitochondrial damage after 2.0 µmol/L HMC insulting. U-937 cells were treated without or with HMC for 24 h. After incubation, equilibrate the plates and its contents at room temperature for 30 min. One hundred microliters of cell titer reagent was added to each well in a 96-well plate and the plate was shaken gently for 2 min to induce cell lysis. The plate was incubated at room temperature for 10 min to stabilize luminescent signal and then record luminescence.

Bcl-2 mRNA = test: RT-PCR Bcl-2 mRNA in U-937 cells; format: cell-based, human; conditions: 2.0 µmol/L, 24 h
Protocol: as §5
(§8) Total RNA extraction for leukemia cells was performed by using Trizol method. U-937 cells were seeded in 6 well plates for 24 h, and then the cells were treated by 2.0 µmol/L HMC for another 24 h. After treatment, the cells were collected for RNA extraction. The forward and reversed primers of Bax were […] and […]. The forward and reversed primers of Bcl-2 were […] and […]. The forward and reversed primers of GAPDH were […] and […]. The reaction was conducted under the conditions with 94 °C for 30 s, 95 °C for 5 s, 62 °C for 30 s, 72 °C for 30 s for 30 cycles. Identity of the PCR-products was controlled by melting curve analysis. Standard curves were prepared from isolated PCR products by serial dilution. Data were normalized towards GAPDH expression and statistically analyzed.

U-937 cells [4] = test: Hoechst 33258 staining, apoptotic morphology; format: cell-based, human; conditions: 2.0 μmol/L, 24 h
From the text: Based on the cytotoxic results, compound 8 (HMC) has pronounced cytotoxicity against human leukemia cells, especially to U-937 cells. Therefore, it was worthy of investigating the cytotoxic mechanism of HMC in U-937 cell death. To elucidate the characteristics of HMC-induced U-937 cells, morphologic changes were examined.
(§9) Figure 2 HMC initiated apoptosis in U-937 cells through mitochondrial and Caspase cascade. (A) Apoptotic U-937 cells were observed after the cells were stained by Hoechst 33258. (B) Mitochondrial transmembrane potential was reduced in U-937 cells stained by Rodamine123. […] (D–F) HMC impacted the mRNA levels and protein expressions of Bax and Bcl-2 in U-937 cells leading to the activation of caspase 3. Data are presented as means ± SD of three independent tests. * p < 0.05 versus control, ** p < 0.01 versus control.

Bax mRNA = test: RT-PCR Bax mRNA in U-937 cells; format: cell-based, human; conditions: 2.0 µmol/L, 24 h
Protocol: as §5, §8

p-Raf = test: Western blot p-Raf in U-937 cells; format: cell-based, human; conditions: 2.0 µmol/L, 0, 24 and 48 h
From the text: as §2, §3, §4

Ras = test: Western blot Ras in U-937 cells; format: cell-based, human; conditions: 2.0 µmol/L, 0, 24 and 48 h
From the text: as §2, §3, §4

total ERK = test: Western blot total ERK in U-937 cells; format: cell-based, human; conditions: 2.0 µmol/L, 0, 24 and 48 h
From the text: as §2, §3, §4

Caspase 3 = Caspase 3 activation in U-937 cells; format: cell-based, human; conditions: 2.0 μmol/L, 24 h
Protocol: as §5, §6

U-937 cells [5] = test: Mitochondrial transmembrane potential, Rhodamine 123; format: cell-based, human; conditions: Rhodamine 123, compared with the control group
From the text: as §9, §7

Bax = test: Western blot Bax in U-937 cells; format: cell-based, human; conditions: 2.0 µmol/L, 24 h
Protocol: as §5, §6

[6] = test system: human embryonic kidney cells HEK-293; test: MTT cytotoxicity assay, HEK-293 (toxic selectivity); conditions: read-out: IC50 HEK-293; MTT, 48 h, Mean ± SD
Protocol: as §10, §11, §12

U-937 cells [7] = test: MTT cell viability, genistein pretreatment plus HMC; format: cell-based, human; conditions: 10 µmol/L Genistein pretreatment 1 h, then 2.0 µmol/L HMC 48 h
From the text: as §2, §3

Compound	IC50 (HEL cells; Homo sapiens, HEL)	IC50 at 48 h (in vitro)	IC50 (HL-60 cells; Homo sapiens, HL-60, 48 h)	IC50 (U-937 cells [1]; Homo sapiens, U-937, 48 h)	IC50 (KG1 cells; Homo sapiens, KG-1, 48 h)	further results
N.N.[Cl][Pt][Cl] [Cisplatin, cisplatin, reference compound]	–	–	–	–	–	IC50 (HEL cells): 7.7 ± 0.2 µM; IC50 (HL-60 cells; 48 h): 13.5 ± 0.4 µM; IC50 (U-937 cells [1]; 48 h): 6.3 ± 0.5 µM; IC50 (KG1 cells; 48 h): 4.1 ± 0.3 µM
OC[C@H]1O[C@@H](OCCc2c[nH]c3ccccc23)[C@H](O)[C@@H](O)[C@@H]1O [Compound 1, 2-(indol-3-yl)ethyl-β-D-glucopyranoside]	121 ± 5.5 µM	> 200 µM	78.9 ± 3.8 µM	52.1 ± 2.6 µM	23.1 ± 1.4 µM	–
C[C@@H]1O[C@@H](OC[C@H]2O[C@@H](OCCc3c[nH]c4ccccc34)[C@H](O)[C@@H](O)[C@@H]2O)[C@H](O)[C@H](O)[C@H]1O [Compound 2, 2-(indol-3-yl)ethyl-α-L-rhamnopyranosyl-(1 → 6)-β-D-glucopyranoside]	131 ± 4.9 µM	> 200 µM	55.3 ± 3.4 µM	80.2 ± 4.5 µM	60.2 ± 2.7 µM	–
COc1ccc2c(c1)NC(=O)[C@]2(O)CCNC(C)=O [Compound 3, (S)-3-hydroxy-3-(N-acetyl-2-aminoethyl)-6-methoxyindol-2-one]	55.3 ± 3.2 µM	122 ± 5.7 µM	36.2 ± 1.1 µM	75.3 ± 2.8 µM	> 200 µM	–
COc1ccc2c(c1)[nH]c1c(C)nccc12 [Compound 5, harmine]	20.3 ± 1.1 µM	–	71.2 ± 3.3 µM	23.1 ± 0.9 µM	62.7 ± 2.8 µM	IC50 at 48 h [2]: > 200 µM
COc1ccc2c([nH]c3c(C)nccc32)c1O[C@@H]1O[C@H](CO)[C@@H](O)[C@H](O)[C@H]1O [Compound 6, ruin]	71.6 ± 2.7 µM	> 200 µM	60.7 ± 2.9 µM	30.6 ± 1.2 µM	44.5 ± 2.1 µM	–
COC(=O)c1nccc2c1[nH]c1cc(OC)ccc12 [Compound 7, harmic acid methyl ester]	35.2 ± 2.8 µM	164 ± 8.1 µM	44.3 ± 2.1 µM	22.3 ± 1.4 µM	56.8 ± 2.5 µM	–
COc1ccc2c3c([nH]c2c1)C=NCC3 [Compound 8, harmalacidine]	25.7 ± 1.1 µM	–	61.3 ± 2.8 µM	3.1 ± 0.2 µM	32.6 ± 1.7 µM	expression of p-ERK1/2 (p-ERK1/2): down-regulate; expression of anti-apoptotic Bcl-2 (Bcl-2): began to decrease; ATP level (U-937 cells [3]): reduce; Bcl-2 mRNA level (Bcl-2 mRNA): reduce; morphologic alterations of cell apoptosis (membrane blebbing, nuclear condensation, granular apoptotic bodies) (U-937 cells [4]): characteristic morphologic alterations of cell apoptosis were observed; Bax mRNA level (Bax mRNA): increase; expression of p-Raf (p-Raf): down-regulate; IC50 at 48 h [2]: > 200 µM; expression of Ras (Ras): down-regulate; total ERK (total ERK): kept no change; Caspase 3 activation (Caspase 3): activated; mitochondrial transmembrane potential (U-937 cells [5]): obviously reduced; expression of pro-apoptotic Bax (Bax): began to increase
COc1ccc2c3c([nH]c2c1)C(C)=NCC3 [Compound 9, harmaline]	20.1 ± 1.2 µM	–	55.3 ± 2.4 µM	10.6 ± 0.7 µM	46.8 ± 1.9 µM	IC50 at 48 h [2]: 156 ± 7.2 µM
COc1ccc2c3c([nH]c2c1)C(C)=NCC3 [Compound 10, protonated harmaline]	–	–	–	–	–	IC50 (HEL cells): 21.2 ± 1.1 µM; IC50 (HL-60 cells; 48 h): 45.7 ± 2.1 µM; IC50 (U-937 cells [1]; 48 h): 15.3 ± 0.7 µM; IC50 [6]: 132 ± 4.6 µM; IC50 (KG1 cells; 48 h): 56.9 ± 2.3 µM
CCc1cc2nccc3c4ccc(OC)cc4n(c1=O)c23 [Compound 11, luotonin C]	68.3 ± 3 µM	> 200 µM	87.3 ± 3.7 µM	49.6 ± 1.9 µM	113 ± 5.6 µM	–
COc1ccc2c3c([nH]c2c1)-c1nc2ccccc2c(=O)n1CC3 [Compound 12, 11-methyoxyl-rutaecarpine]	121 ± 5.5 µM	> 200 µM	93.8 ± 6.8 µM	55.3 ± 1.7 µM	88.1 ± 3.7 µM	–
O=c1c(-c2ccc(O)cc2)coc2cc(O)cc(O)c12 [genistein, Genistein]	–	–	–	–	–	cell viability after HMC co-incubation compared with HMC-treated only (U-937 cells [7]): significantly decrease
harmol [Compound 4]	–	–	–	–	–	IC50 (HEL cells): 54.6 ± 2.3 µM; IC50 (HL-60 cells; 48 h): 62 ± 2.8 µM; IC50 (U-937 cells [1]; 48 h): 46.1 ± 2 µM; IC50 [6]: > 200 µM; IC50 (KG1 cells; 48 h): 47.7 ± 2.3 µM
